Laboratory results from patent US11634395B2, “Sulfonamide compound or salt thereof” (Taiho Pharmaceutical Co., Ltd., priority 2016, dated 2023).

System: HCC 1806 cells
Assay: Cell proliferation inhibitory effect on human breast cancer cell line (crystal violet, 72 hours)
Type: cell-based
Conditions: read-out: Cell growth suppression IC50
Description: Human derived breast cancer cell line HCC 1806 cells were daily passaged at a cell density not exceeding 80% in ATCC recommended Roswell Park Memorial Institute medium (RPMI-1640) containing 10% fetal bovine serum (FBS). In order to start the test of cell proliferation inhibitory activity, HCC 1806 cells were suspended in the above medium, after seeing at 180 μl in each well of a 96-well flat bottom plate so that the number of cells per well was 2,000, the cells were cultured at 37° C. for 1 day in an incubator containing 5% carbon dioxide gas. On the next day, the test compound was dissolved in DMSO, and 20 μl of a drug additive solution diluted serially with distilled water to 10 times of the final concentration was added to each well of the culture plate of the cells, and the cells were cultured at 37° C. for 72 hours in an incubator containing 5% carbon dioxide gas. […] 100 μL of an extract solution (0.1 N NaH2PO4: 100% ethanol=1:1) was added to each well and mixed, and the mixture was measured at a wavelength of 540 nm using a plate reader (MTP-450 manufactured by Corona Electric Co., Ltd.). […]
T: Absorbance of well to which test compound was added
C: Absorbance of wells to which no test compound was added
B: Absorbance of wells to which no cell suspension was added

- IC50: 600 nM
SMILES: Cc1ccc(F)c([C@@H](C)[C@H](NS(=O)(=O)c2ccc(C(F)(F)F)c3c2OCCC3(C)O)c2n[nH]c(=O)o2)c1C (single isomer, unassigned) [Example 225A]
